Assay results as given in US6541463B1, “Inhibitors of type 5 and type 3 17β-hydroxysteroid dehydrogenase and methods for their use” (Endorecherche, Inc., priority 1998, dated 2003).
Like-named read-outs stand apart in the source and are kept apart here.

What was measured:
[1] = target: T1, human type 5 17β-hydroxysteroid dehydrogenase (Homo sapiens, UniProt P42330); assay: Reversibility of human type 5 17β-HSD inhibitory activity (preincubation, wash); assay type: cell-based
T1 construct: screen again a human placental λgt11 cDNA to get the full length cDNA clone; expressed in transfected cells; host or cells: human embryonal kidney 293 cells (pCMV / pCMV-neo vector)
T1 sequence (P42330 1-323): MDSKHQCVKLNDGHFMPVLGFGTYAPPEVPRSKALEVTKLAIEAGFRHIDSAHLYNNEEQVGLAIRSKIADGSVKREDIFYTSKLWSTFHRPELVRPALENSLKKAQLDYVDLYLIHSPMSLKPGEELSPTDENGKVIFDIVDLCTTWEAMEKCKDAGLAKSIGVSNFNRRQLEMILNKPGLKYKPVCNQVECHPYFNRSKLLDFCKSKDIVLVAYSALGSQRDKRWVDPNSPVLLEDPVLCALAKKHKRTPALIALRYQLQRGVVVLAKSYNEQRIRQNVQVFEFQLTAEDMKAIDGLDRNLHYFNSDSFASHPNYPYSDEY
Protocol: In column 3, the reversibility of the inhibition of type 5 17β-hydroxysteroid dehydrogenase activity expressed in percentage of control is reported. The manner in which the reversibility is determined is described in “Efficacy of Preferred Inhibitors: V. Reversibility of Human Type 5 17β-HSD Inhibitory Activity”. Lower number is desirable. Blank means that a determination was not done.
Determination of activity was performed as described (Luu-The et al., Mol. Endocrionol. 4: 268-275, 1990, Lachance et al., J. Biol. Chem. 265: 20469-20475, 1990; Luu-The et al., DNA & Cell Biol. 14: 511-518, 1995). Briefly, 0.1 μM of the indicated ^14C-labeled substrate (Dupont Inc. (Canada), namely, DHEA, 4-androstene-3,17-dione (Δ4), in absence or presence of increasing concentration of preferred inhibitor of the invention, was added to freshly changed culture medium in a 6-well culture plate. After incubation for 1 h, the steroids were extracted twice with 2 ml of ether. The organic phase were pooled and evaporated to dryness. The steroids were solubilized in 50 μl of dichloromethane, applied to Silica gel 60 thin layer chromatography (TLC) plate (Merck, Darmstad, Germany) then separated by migration in the toluene-acetone (4:1) solvent system. […] Transfection could be also performed with HeLa, SW-13, 293, COS-1 cells, the preferred cell line is 293 cells.
The reversibility assay was performed as described above for the standard type 5 17β-HSD enzymatic assay, except that before adding the ^14C-labeled substrate, the cells were preincubated with 0.3 μM of the indicated inhibitor for 1 h, (or the indicated time interval), followed by two washes with phosphate saline buffer (PBS).

[2] = target: T2, human type 1 17β-hydroxysteroid dehydrogenase (Homo sapiens, UniProt P14061); assay: Enzymatic assay for type 1 17β-HSD; assay type: biochemical; conditions: for IC50: Table 4′, read-out: Inhibition Type 1 17β-HSD Activity IC50; for Inhibition Type 1 17B-HSD Activity [% Inh. at 3 · 10^−6 M] / inhibition at 3 µM: value in square brackets, 3 · 10^−6 M; for inhibition at 3 µM: read-out: Inhibition Type 1 17B-HSD Activity [% Inh. at 3 · 10^−6 M]
T2 construct: expressed in transfected cells; host or cells: 293 cells, transient transfection; 100 000×g supernatant (cytosol)
T2 sequence (P14061 1-328): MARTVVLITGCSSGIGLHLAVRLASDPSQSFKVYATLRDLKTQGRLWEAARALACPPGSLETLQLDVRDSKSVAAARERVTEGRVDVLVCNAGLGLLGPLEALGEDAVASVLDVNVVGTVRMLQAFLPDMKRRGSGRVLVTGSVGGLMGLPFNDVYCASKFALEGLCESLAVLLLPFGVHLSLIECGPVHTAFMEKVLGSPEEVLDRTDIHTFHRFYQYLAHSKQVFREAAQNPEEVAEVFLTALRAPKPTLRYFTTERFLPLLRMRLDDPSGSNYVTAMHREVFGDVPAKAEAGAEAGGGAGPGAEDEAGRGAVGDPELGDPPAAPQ
Protocol: The manner in which IC50 was determined is described in “Efficacy of Preferred Inhibitors: VI. Enzymatic assay for types 1, 2, and 3 17β-HSD and types 1 and 3 3α-HSD”. […] numbers of IC50 are desirable. Blank means that a determination was not done. The % of inhibition at the concentration of 3.10^−6M determined in preliminary screening test is reported in square braquets.
Enzyme sources. 293 cells transiently transfected with expression vectors encoding types 1, 2 and 3 17β-HSD (Luu-The et al., J. Steroid Biochem. Molec. Biol., 55: 581-587, 1995), types 1 and 2 5α-reductase (Luu-The et al., J. Invest. Dermatol., 102: 221-226, 1994) and types 1 and 3 3α-HSD (Dufort et al. Biochem. Biophys. Res. Commun. 228: 474-479, 1996), using the calcium phosphate procedure (Kingston et al., In: Current Protocols in Molecular Biology. Edited by E. M. Ausbel, R. Brent, R. E. Kingston, D. D. Moore, J. G. Seidman, J. A. Smith, K. Struhl. John Wiley & Sons, New York, pp. 9.1.1-9.1.9, 1991; Luu-The et al., J. Invest. Dermatol., 102: 221-226, 1994). For assays using cell subfractions, cells were sonicated in 50 mM sodium phosphate buffer (pH 7.4), containing 20% glycerol and 1 mM EDTA and centrifuged at 10 000×g for 30 min before centrifugation for 100 000×g for 1 h to separate the mitochondrial and microsomal fractions, respectively. The cytosol fractions (100 000×g supernatant) was used to determine type 1 activity while the microsomal fraction (pellet at 100 000×g) was used for measurement of types 2 and 3 17β-HSD activities.
Incubation. The enzymatic reaction was carried out at 37° C. in 1 ml of 50 mM sodium phosphate buffer, pH 7.4, containing 20% glycerol, 1 mM EDTA, and 2 mM cofactors (NADPH or AND^+) for 1 h in the presence of 0.1 μM ^14C-labeled substrate: estrone and 4-dione for types 1 and […] 17β-HSD, respectively, testosterone for type 2 17β-HSD as well as types 1 and 2 5α-reductases, DHT for types 1 and 3 3α-HSD activities, and the indicated concentration of inhibitor.
Extraction of metabolites, migration on TLC and quantification were as described above for the assay of type 5 17β-HSD.

Row | SMILES | Reversibility ((%) of control) ([1]; Table 4′) | also measured
1 | CC1(C)CCC2(CCC3C4CCc5cc(OS(C)(=O)=O)ccc5C4CCC32C)OC1=O (stereo not drawn) [EM-1365-CS] | 49 % of control | IC50 [2]: > 10 µM
2 | COc1cc2c(cc1C)C1CCC3(C)C(CCC34CCC(C)(C)C(=O)O4)C1CC2 (stereo not drawn) [EM-1412-CS] | 71 % of control | 
3 | COCCOc1cc2c(cc1C(=O)OC)C1CC[C@@]3(C)C(CC[C@@]34CCC(C)(C)C(=O)O4)C1CC2 (stereo partly drawn) [EM-1402-CS, 2-Carbomethoxy-3-(2″-methoxyethyloxy)-1,3,5(10)-estratrien 17(R)-spiro-2′-(5′,5′-dimethyl-6′-oxo)tetrahydropyran] | 25 % of control | IC50 [2]: > 10 µM
4 | CC1=C[C@@H]2[C@H](CC[C@]3(C)C(=O)C4(CCCCC4)C[C@@H]23)[C@@]2(C)CCC(=O)C=C12 [EM-925] |  | Inhibition Type 1 17B-HSD Activity [% Inh. at 3 · 10^−6 M] [2]: [13] %
5 | CC1(C)CC[C@@]2(CCC3C4CCc5cc(F)ccc5C4CC[C@@]32C)OC1=O (stereo partly drawn) [EM-1157-CS] | 28 % of control | IC50 [2]: > 10 µM
6 | COCCOc1cc2c(cc1C(N)=O)C1CC[C@@]3(C)C(CC[C@@]34CCC(C)(C)C(=O)O4)C1CC2 (stereo partly drawn) [EM-1424, 2-Carbamoyl-3-(2″-methoxyethyloxy)-1,3,5(10)-estratrien 17(R)-spiro-2′-(5′,5′-dimethyl-6′-oxo)tetrahydropyran] | 17 % of control | IC50 [2]: > 10 µM
7 | CC12C=CC(=O)C=C1C=CC1C2CCC2(C)C(=O)C3(CCCCC3)CC12 (stereo not drawn) [CS-204] |  | inhibition at 3 µM [2]: 23%
8 | CC(C)C[C@@H]1CC2C3C=CC4=CC(=O)CC[C@]4(C)C3CC[C@]2(C)C1=O (stereo partly drawn) [EM-1273-CS] |  | Reversibility ((%) of control) [1]: 40%; inhibition at 3 µM [2]: 31%
9 | COCCOc1cc2c(cc1Cl)C1CCC3(C)C(CCC34CCC(C)(C)C(=O)O4)C1CC2 (stereo not drawn) [EM-1371-CS] | 40 % of control | 
10 | COCCOc1cc2c(cc1F)C1CCC3(C)C(CCC34CCC(C)(C)C(=O)O4)C1CC2 (stereo not drawn) [EM-1393-CS] | 38 % of control | 
11 | CCC[C@@H]1CC2C3C=CC4=CC(=O)CC[C@]4(C)C3CC[C@]2(C)C1=O (stereo partly drawn) [EM-1097] |  | Reversibility ((%) of control) [1]: 45%; inhibition at 3 µM [2]: 64%
12 | C[C@]12CCC(=O)C=C1C=C[C@@H]1[C@@H]2CC[C@]2(C)C(=O)C3(CC4CC4C3)C[C@@H]12 (stereo partly drawn) [EM-1299, 4,6-Androstadien-3,17-dione-16-spirobicyclo[3′.1′.0′]-hexane] |  | Inhibition Type 1 17B-HSD Activity [% Inh. at 3 · 10^−6 M] [2]: [49] %
13 | CC1(C)CC[C@@]2(CCC3C4CCc5cc(C(N)=O)ccc5C4CCC32C)OC1=O (stereo partly drawn) [EM-1404] |  | IC50 [2]: > 10 µM
14 | COCCOc1cc2c(cc1C(=O)N(C)C)C1CCC3(C)C(CCC34CCC(C)(C)C(=O)O4)C1CC2 (stereo not drawn) [EM-1413-CS] | 37 % of control | 
15 | COc1ccc2c(c1)C(=O)CC1C2CC[C@@]2(C)C1CC[C@@]21CCC(C)(C)C(=O)O1 (stereo partly drawn) [EM-1394] | 23 % of control | IC50 [2]: > 10 µM
16 | CCCC(=O)O[C@]1(C)C(=O)CCC2C3C=C(C)C4=CC(=O)CC[C@]4(C)C3CC[C@@]21C (stereo partly drawn) [EM-1078] |  | inhibition at 3 µM [2]: 15%
17 | CC1(C)CC[C@@]2(CCC3C4CCc5cc(C(=O)O)ccc5C4CC[C@@]32C)OC1=O (stereo partly drawn) [EM-1401, 3-Carboxy-1,3,5(10)-estratrien-17(R)-spiro-2′-(5′,5′-dimethyl-6′-oxo)tetrahydropyran] | 31 % of control | IC50 [2]: > 10 µM
18 | CC1(C)CCC2(CCC3C4CCc5c(cc(Cl)c(OS(C)(=O)=O)c5Cl)C4CCC32C)OC1=O (stereo not drawn) [EM-1392-CS] | 38 % of control | 
19 | CN(C)CCOc1ccc2c(c1)CCC1C2CCC2(C)C1CCC21CCC(C)(C)C(=O)O1 (stereo not drawn) [EM-1389-CS] | 40 % of control | 
20 | COCCOc1cc2c(cc1C(=O)O)C1CCC3(C)C(CCC34CCC(C)(C)C(=O)O4)C1CC2 [EM-1405, 2-Carboxy-3-(2″-methoxyethyloxy)-1,3,5(10)-estratrien-17(R)-spiro-2′-(5′,5′-dimethyl-6′-oxo)tetrahydropyran] | 53 % of control | 
21 | COc1c(Br)cc2c(c1Br)CCC1C2CCC2(C)C1CCC21CCC(C)(C)C(=O)O1 (stereo not drawn) [EM-1385-CS] | 60 % of control | 
22 | COc1ccc(CC(=O)O[C@]2(C(C)=O)CCC3C4C=C(C)C5=CC(=O)C=C[C@]5(C)C4CC[C@@]32C)cc1 (stereo partly drawn) [EM-1291] |  | Reversibility ((%) of control) [1]: 27%
23 | CC1(C)CCC2(CCC3C4CCc5cc(OCCN6CCCCC6)ccc5C4CCC32C)OC1=O [EM-1390-CS, 3-(N-piperidyl-ethyl)-1,3,5(10)-estratrien-17(R)-spiro-2′-(5′,5′-dimethyl-6′-oxo)-tetrahydropyran] | 50 % of control | 
24 | CC1(C)CCC2(CCC3C4CCc5c(cc(Cl)c(O)c5Cl)C4CCC32C)OC1=O (stereo not drawn) [EM-1391-CS] | 49 % of control | 
25 | COCCOc1cc2c(cc1C#N)C1CC[C@@]3(C)C(CC[C@@]34CCC(C)(C)C(=O)O4)C1CC2 (stereo partly drawn) [EM-1396] | 28 % of control | IC50 [2]: > 10 µM
26 | CCC[C@]1(F)CC2C3C=CC4=CC(=O)CC[C@]4(C)C3CC[C@]2(C)C1=O (stereo partly drawn) [EM-1183] |  | inhibition at 3 µM [2]: 34%
27 | COc1ccc2c(c1)C(=O)CC1C3CCC4(CCC(C)(C)C(=O)O4)C3(C)CCC21O (stereo not drawn) [EM-1386] | 54 % of control | 
